Where a name gives a salt, the structure may show the parent alone.
What was measured:
[1] = target: T1, Human immunodeficiency virus type 1 reverse transcriptase (Human immunodeficiency virus 1, UniProt Q72547); experiment: Inhibition of HIV1 RT using poly A oligo(dT) template primer
[2] = target: T1, Human immunodeficiency virus type 1 reverse transcriptase; details: read-out: IC50 (converted)
[3] = target: Human immunodeficiency virus type 1 reverse transcriptase (Human immunodeficiency virus 1) (UniProt Q72547); experiment: Inhibition of HIV1 RT at 200 ug/ml

Row | IC50 [2] | SMILES | IC50 [1] | inhibition [3]
1 | < 130 µM | COc1cc2c[n+](C)c3c4cc5c(cc4ccc3c2cc1OC)OCO5 [NITIDINE CHLORIDE] | 128 µM | 
2 | > 586 µM | COc1cc2c(cc1OC)[C@@H]1Cc3ccc(OC)c(O)c3CN1CC2 [TETRAHYDROPALMATRUBINE] |  | 25%
3 | > 529 µM | COc1ccc2c(c1O)-c1c(O)c(OC)cc3c1[C@H](C2)[N+](C)(C)CC3 [MAGNOFLORINE CHLORIDE] |  | < 10%
4 | > 596 µM | COc1cc2c(ccc3c4cc(OC)c(OC)cc4cnc23)cc1O |  | < 10%
5 | > 734 µM | COc1c(O)cc(O)c2c(=O)c(O)c(-c3ccccc3)oc12 |  | 
6 | < 496 µM | O=c1oc2c(O)c(O)cc3c(=O)oc4c(O)c(O)cc1c4c23 [ELLAGIC ACID] |  | 
7 | 237 µM | COc1cccc2c1C(=O)c1c(O)c3c(c(O)c1C2=O)C[C@@](O)(C(C)=O)C[C@@H]3O[C@H]1C[C@H](N)[C@H](O)[C@H](C)O1 [DAUNORUBICIN] |  | 
8 | > 593 µM | COc1cc2c(c3c1c(=S)c1ccccc1n3C)C=CC(C)(C)O2 [THIOACRONYCINE] |  | 
9 | 17.3 µM | CC[C@H]1CN2CCc3cc(OC)c(OC)cc3[C@@H]2C[C@@H]1CC1=NCCc2cc(OC)c(OC)cc21 |  | 
10 | > 511 µM | C=C[C@H]1C[N@@]2CC[C@H]1C[C@@H]2[C@@H](O)c1ccnc2ccc(OC)cc12 [QUINIDINE SULFATE] |  | 
11 | > 473 µM | C1CCN2C[C@@H]3C[C@@H](CN4CCCC[C@@H]34)[C@H]2C1 [SPARTEINE SULFATE] |  | 
12 | > 438 µM | C[C@H](O)C1=C[C@@]2(C=C[C@@H]3C(C(=O)O)=CO[C@@H](O[C@@H]4O[C@H](CO)[C@@H](O)[C@H](O)[C@H]4O)[C@@H]32)OC1=O |  | 
13 | > 389 µM | CC(=O)O[C@H]1CC(=O)OC(C)(C)[C@@H]2CC(=O)[C@]3(C)[C@H](CC[C@@]4(C)[C@@H](c5ccoc5)OC(=O)[C@H]5O[C@]543)[C@@]12C [NOMILIN] |  | 
14 | > 313 µM | COc1cc2c(c3c1/c(=N\N=c1/c4ccccc4n(C)c4c5c(cc(OC)c14)OC(C)(C)C=C5)c1ccccc1n3C)C=CC(C)(C)O2 [ACRONYCINE AZINE] |  | 

Row | SMILES | IC50 [2] | IC50 [1] | inhibition [3]
15 | C/C=C1/C[N+]2(C)CC[C@@]34c5ccccc5N[C@]32CCC1C4(CO)C(=O)OC (some centres not stated) [ECHITAMINE CHLORIDE] | > 494 µM |  | < 10%
16 | COc1cc2c(ccc3c4cc(OC)c(OC)cc4c[n+](C)c23)cc1O [FAGARONINE] | 46.7 µM | 25.9 µM | 
17 | CC[C@H]1CN2CCc3cc(OC)c(OC)cc3[C@@H]2C[C@@H]1CC1=NCCc2cc(O)c(OC)cc21 [PSYCHOTRINE] | > 430 µM |  | 20%
18 | C1CN[C@@H]2[C@@H](C1)[C@@H]1CC2([C@H]2CCC[C@H](C3CC[C@@H]4N[C@H]3N3CCC[C@H]5C[C@@H]6C[C@]4(CN4CCCC[C@H]64)[C@@H]53)N2)CN2CCCC[C@H]12 (some centres not stated) [ORMOSININE] | > 324 µM |  | 
19 | C=C1C/C(=C/C)C(=O)O[C@@H]2CCN3CC=C(COC(=O)[C@]1(C)O)[C@H]23 [SENECIPHYLLINE] | > 600 µM |  | 
20 | COc1ccc2c(c1OC)CN1CCc3cc4c(cc3C1C2)OCO4 (configuration not stated) [TETRAHYDROBERBERINE] | > 589 µM |  | 25%
21 | C[C@H]1C(=O)O[C@@H]2CCN3CC=C(COC(=O)[C@](C)(O)[C@]1(C)O)[C@H]23 [MONOCROTALINE] | > 615 µM |  | 
22 | CC[C@H]1CN2CCc3cc(OC)c(OC)cc3[C@@H]2C[C@@H]1C[C@H]1NCCc2cc(O)c(OC)cc21 [CEPHAELINE DIHYDROCHLORIDE] | > 371 µM |  | 20%
23 | C=C(C)[C@H]1Cc2c(ccc3c2O[C@@H]2COc4cc(OC)c(OC)cc4[C@]2(O)C3=O)O1 [ROTENOLONE] | > 487 µM |  | 

From ChEMBL document CHEMBL1137798, “Evaluation of natural products as inhibitors of human immunodeficiency virus type 1 (HIV-1) reverse transcriptase” (J Nat Prod, 1991)
